Measurements: the supplement of paper PMC4862054

Legend:
Details in all cases: incubation time: 72 h
DU-4475 = test: drug sensitivity score (DSS), CellTiter-Glo (DSS (AUC-based score)); higher = stronger drug effect (viability inhibition or cytotoxicity); extreme values may be limits of the assay
Outline: (§1)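 The drug sensitivity score reflects the area under a fitted dose-response curve. To obtain it, breast cancer cells in 20 µl suspension were seeded into 384-well plates containing compound at 5 concentrations, 10-fold apart over a compound-specific 10,000-fold range, and incubated 72 h. CellTox Green fluorescence (485/520 nm) was read first and CellTiter-Glo luminescence second, after 10 min at room temperature. Each plate was normalised to 0.1 % DMSO and a positive kill control.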

HDQ-P1 = test: as above
Outline: as §1

Hs578T = test: as above
Outline: as §1

MDA-MB-453 [1] = test: as above
Outline: as §1

MDA-MB-436 = test: as above
Outline: as §1

MDA-MB-468 [2] = test: as above
Outline: as §1

MCF-10A = test: as above
Outline: as §1

CAL-85-1 = test: as above
Outline: as §1

CAL-148 = test: as above
Outline: as §1

HCC1937 = test: as above
Outline: as §1

HCC1143 [3] = test: as above
Outline: as §1

CAL-51 = test: as above
Outline: as §1

MDA-MB-231 = test: as above
Outline: as §1

HCC1599 [4] = test: as above
Outline: as §1

BT-474 = test: as above
Outline: as §1

BT-549 = test: as above
Outline: as §1

MFM-223 = test: as above
Outline: as §1

CAL-120 [5] = test: as above
Outline: as §1

SK-BR-3 = test: as above
Outline: as §1

MDA-MB-453 [6] = test: drug sensitivity score (DSS), CellTox Green (DSS (AUC-based score)); higher = stronger drug effect (viability inhibition or cytotoxicity); extreme values may be limits of the assay
Outline: as §1

MDA-MB-468 [7] = test: as above
Outline: as §1

HCC1143 [8] = test: as above
Outline: as §1

HCC1599 [9] = test: as above
Outline: as §1

CAL-120 [10] = test: as above
Outline: as §1

Row | SMILES | drug sensitivity score (DU-4475) | drug sensitivity score (HDQ-P1) | drug sensitivity score (Hs578T) | drug sensitivity score (MDA-MB-453 [1]) | drug sensitivity score (MDA-MB-436) | drug sensitivity score (MDA-MB-468 [2]) | drug sensitivity score (MCF-10A) | drug sensitivity score (CAL-85-1) | drug sensitivity score (CAL-148) | drug sensitivity score (HCC1937) | drug sensitivity score (HCC1143 [3]) | drug sensitivity score (CAL-51) | drug sensitivity score (MDA-MB-231) | drug sensitivity score (HCC1599 [4]) | drug sensitivity score (BT-474) | drug sensitivity score (BT-549) | drug sensitivity score (MFM-223) | drug sensitivity score (CAL-120 [5]) | drug sensitivity score (SK-BR-3) | drug sensitivity score (MDA-MB-453 [6]) | drug sensitivity score (MDA-MB-468 [7]) | drug sensitivity score (HCC1143 [8]) | drug sensitivity score (HCC1599 [9]) | drug sensitivity score (CAL-120 [10])
1 | COc1cc(Nc2ncc3c(n2)-c2ccc(Cl)cc2C(c2c(F)cccc2OC)=NC3)ccc1C(=O)O [Alisertib] | 9.45 | 3.21 | 5.73 | 0 | 11.8 | 23.4 | 0 | 0 | 7.08 | 3.43 | 8.44 | 12.8 | 4.67 | 0 | 8.02 | 12.7 | 10.8 | 5.92 | 0 | 0 | 32.7 | 0 | 0 | 0
2 | Cc1ccc(F)c(NC(=O)Nc2ccc(-c3cccc4[nH]nc(N)c34)cc2)c1 [Linifanib] | 0 | 0 | 0 | 0 | 0 | 0 | 0 | 0 | 0 | 0 | 0 | 1.94 | 0 | 0 | 0 | 0 | 0 | 0 | 0 | 0 | 0 | 0 | 0 | 0
3 | CCN1CCN(c2ccc(Nc3cc(N(C)C(=O)Nc4c(Cl)c(OC)cc(OC)c4Cl)ncn3)cc2)CC1 [NVP-BGJ398] | 0 | 0 | 0.39 | 0 | 0 | 0 | 0 | 0 | 0 | 0 | 0 | 0 | 0 | 0 | 0 | 0 | 7.35 | 2.55 | 0 | 0 | 0 | 0 | 0 | 0.0505
4 | C=CCNC1=C2C[C@@H](C)C[C@H](OC)[C@H](O)[C@@H](C)/C=C(\C)[C@H](OC(N)=O)[C@@H](OC)/C=C\C=C(/C)C(=O)NC(=CC1=O)C2=O [Tanespimycin] | 20.2 | 19 | 15.6 | 23.7 | 18.2 | 11.3 | 21.6 | 13.3 | 16.3 | 16.5 | 18 | 20.7 | 14.5 | 8.46 | 14.5 | 18.5 | 16.8 | 10.5 | 18.3 | 0 | 0 | 2.55 | 0 | 0.533
5 | CC[C@]1(O)C[C@@H]2CN(CCc3c([nH]c4ccccc34)[C@@](C(=O)OC)(c3cc4c(cc3OC)N(C)[C@H]3[C@@](O)(C(=O)OC)[C@H](OC(C)=O)[C@]5(CC)C=CCN6CC[C@]43[C@@H]65)C2)C1 [Vinblastine] | 8.05 | 7.5 | 20.3 | 13.1 | 22.8 | 21.1 | 10.9 | 20.7 | 13 | 9.45 | 15.8 | 18.4 | 16.2 | 17.2 | 14.3 | 21.3 | 13 | 14.2 | 27.5 | 0 | 12.8 | 9.2 | 2.86 | 3.49
6 | Cc1c2oc3c(C)ccc(C(=O)N[C@@H]4C(=O)N[C@H](C(C)C)C(=O)N5CCC[C@H]5C(=O)N(C)CC(=O)N(C)[C@@H](C(C)C)C(=O)O[C@@H]4C)c3nc-2c(C(=O)N[C@@H]2C(=O)N[C@H](C(C)C)C(=O)N3CCC[C@H]3C(=O)N(C)CC(=O)N(C)[C@@H](C(C)C)C(=O)O[C@@H]2C)c(N)c1=O [Dactinomycin] | 30.3 | 24.4 | 22.5 | 18.7 | 21 | 32.2 | 23.6 | 22.8 | 25.7 | 21.7 | 22.4 | 26.4 | 22.4 | 16.4 | 21 | 31.3 | 15 | 17.8 | 21.3 | 0 | 10.7 | 1.67 | 0 | 0
7 | C[C@]1(c2nc3c(C(N)=O)cccc3[nH]2)CCCN1 [Veliparib] | 0 | 0 | 0 | 0 | 0 | 0 | 0 | 0 | 0 | 0 | 0 | 3.97 | 0 | 0 | 0.587 | 0 | 0 | 0 | 0 | 0 | 0 | 0 | 0 | 0
8 | OC[C@H]1O[C@@H](n2cnc3c2N=CNC[C@H]3O)C[C@@H]1O [Pentostatin] | 0 | 0 | 0 | 0 | 0 | 0 | 0 | 0 | 0 | 0 | 0 | 0 | 0 | 0 | 0.0029 | 0 | 0 | 0 | 0 | 0 | 0 | 0 | 0 | 0
